Experimental data taken from PubChem BioAssay (NCI).
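Cultured in 96-well plates, cells were exposed to test compound for 48 hours across five concentrations. GI50 is the concentration that inhibits growth by half. The concentration for full growth arrest is given as TGI.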

How the values were obtained:
Experiment in all cases: NCI anticancer screen, dose series, 48 h
CCRF-CEM leukemia = test system: CCRF-CEM leukemia
EKVX NSCLC = test system: EKVX NSCLC
HS 578T breast = test system: HS 578T breast
HT29 colon = test system: HT29 colon
IGROV1 ovarian = test system: IGROV1 ovarian
MCF7 breast = test system: MCF7 breast
SN12C renal = test system: SN12C renal

Row | Structure (SMILES) | GI50 (CCRF-CEM leukemia) [µM] | TGI (CCRF-CEM leukemia) [µM] | GI50 (EKVX NSCLC) [µM] | TGI (EKVX NSCLC) [µM] | GI50 (HS 578T breast) [µM] | TGI (HS 578T breast) [µM] | GI50 (HT29 colon) [µM] | TGI (HT29 colon) [µM] | GI50 (IGROV1 ovarian) [µM] | TGI (IGROV1 ovarian) [µM] | GI50 (MCF7 breast) [µM] | TGI (MCF7 breast) [µM] | GI50 (SN12C renal) [µM] | TGI (SN12C renal) [µM]
1 | Cc1noc(C)c1-c1cnc2c(-c3ccc(C(=O)O)cc3)cn([C@@H](C)c3ccccn3)c2c1 | 2.73 | > 100 | 0.58 | > 100 | 0.188 | > 100 | 0.386 | > 100 | 0.607 | > 100 | 0.186 | > 100 | 2.99 | > 100
2 | O=C(CN(/C=C/C(=O)C(F)(F)F)c1ccccc1)c1ccc(Cl)cc1 | 21 | 49.9 | 40 | > 100 | 28.2 | 64.6 | 34.5 | > 100 | 15.5 | 43.8 | 24.5 | 67.1 | 16 | 29.9
3 | COc1ccc(-c2nc(N)c(C#N)c3c2CCOc2c-3ccc3ccccc23)cc1 | > 100 | > 100 |  |  | 31.8 | 76.6 | 52.7 | > 100 |  |  | 20.2 | > 100 | 21 | 76.5
4 | CC[C@@H](O)C[C@H]1CCC[C@@]2(C[C@@H]3OC(=O)/C=C/[C@@](C)(O)[C@@H](O)[C@H](C)[C@@H](O)[C@H](OC4CCC(N(C)C)C(C)O4)[C@@H](O)[C@](C)(O)CCCCC/C=C/[C@@H]4CC(C)(C)O[C@@]4(O)C[C@H](O2)[C@H]3C)O1 (stereo partly specified) |  | > 100 |  | 19.1 |  | 33.5 |  | > 39.7 |  | 21.8 |  | 15.6 |  | 37.1
5 | Cn1cc(C2=C(c3ccccc3C(F)(F)F)C(=O)NC2=O)c2ccccc21 | 4.86 | > 25 |  |  | 5.36 | > 25 | 6.22 | > 25 | 13.2 | > 25 | 7.47 | > 25 | 9.73 | > 25
6 | COc1cc(-c2cc3ncccc3c3[nH]c(=O)c4cccnc4c23)cc(OC)c1OC | 0.623 | > 100 | 0.818 | > 100 | 0.914 | > 100 | 0.397 | > 100 | 3.61 | > 100 | 0.394 | > 100 | 14.3 | > 100
7 | O=C(Nc1ccc2c(c1)OCCO2)C(=O)c1c[nH]c2ccccc12 | 1.08 | > 100 | 5.37 | > 100 | 1.72 | 22.9 | 0.81 | 3.78 | 3.09 | > 72.4 | 1.31 | > 100 | 2.31 | > 83
8 | C=C1C(=O)O[C@H]2[C@H]1CC/C(COC(=O)NCCc1cccc(OC)c1)=C\CC[C@@]1(C)O[C@@H]21 | 0.34 | 1.93 | 1.78 | 4.25 | 3.43 | 21.6 | 1.14 | 2.88 | 1.26 | 3.05 | 0.494 | 2.1 |  | 
9 | O=C(/C=C\n1cnc(-c2cc(C(F)(F)F)cc(C(F)(F)F)c2)n1)N1CC(F)(F)C1 | 0.407 | > 18.8 | 0.953 | 14.6 | 0.409 | 5.34 | 0.919 | 11.5 | 0.978 | 8.59 | 0.212 | 1.64 | 1.19 | > 25
10 | CC/C(Cc1ccccc1)=C(/c1ccc(O)cc1)c1ccc(OCCN2CCCC2)cc1 | 1.83 | 4.16 | 1.44 | 2.89 | 1.86 | 5.83 | 1.72 | 3.78 | 1.95 | 4.5 | 0.0211 | 2.22 | 1.88 | 3.88
11 | Cc1ccc(O)c(NC2=C(Cl)C(=O)N(Cc3ccccc3)C2=O)c1 | 4.54 | 29 | 35.9 | > 100 | 21.2 | 65.3 | 33.3 | > 100 | 6.44 | 24.2 | 16.2 | 48.8 | 14.9 | 32.7
12 | COc1cc(NC(C)CCCNC(C)C)c2ncccc2c1OC (stereo unspecified) |  |  | 36.4 | > 100 | 4.74 | 60.7 |  |  | 13.4 | 44.3 | 29.6 | > 100 | > 100 | > 100
13 | O=C1Nc2ccccc2/C1=C/c1cn(CC(O)Cn2cc(/C=C3\C(=O)Nc4ccccc43)c3ccccc32)c2ccccc12 (stereo unspecified) | 2.84 | 13.4 | 1.81 | 3.78 | 2.43 | 7.85 | 1.42 | 3.52 | 0.477 | 1.9 |  |  | 1.52 | 3.16
14 | COc1ccc(-c2nn3ncccc3c2-c2ccnc(Nc3ccc4c(c3)OCCO4)n2)cc1 | 6.07 | > 25 | 9.61 | > 25 | 10.2 | > 25 | 4.29 | > 23.8 | 2.17 | > 19.6 | 13.8 | > 25 | 6.5 | > 25
15 | S=C(CSc1ccccc1)Nc1cccc2ccccc12 |  |  |  | > 100 |  | > 100 |  | > 100 |  | > 100 |  | > 100 |  | > 100
16 | COc1ccc2nc3cccc([N+](=O)[O-])c3c(NCCNCCN(C)C)c2c1 | 0.0384 | 0.29 | 0.261 | 1.43 | 0.175 | 0.558 | 0.0238 | 0.143 | 0.0195 | 0.136 | 0.0192 | 0.221 | 0.141 | 0.592
17 | Cc1nc(Sc2nc3ccc([N+](=O)[O-])cc3s2)sc1C | 0.477 | 6.18 | 11.6 | 24.2 | 3.03 | 16.4 | 1.64 | 4.23 | 3 | 14.8 | 0.705 | 10.1 | 1.74 | 6.04
18 | Cc1cccc(Nc2cc(Cl)nc(SCC(=O)O)n2)c1C |  | > 100 |  | > 100 |  | > 100 |  | > 100 |  | > 100 |  | > 100 |  | > 100
